The values that follow come from patent US7598382B2, “Aryl substituted imidazoquinolines” (Coley Pharmaceutical Group, Inc., priority 2002, dated 2009).

The term melting point denotes the temperature, or range, at which the solid turns liquid. On to `CCOCc1nc2c(N)nc3cc(-c4cccnc4)ccc3c2n1CCN1CCN(C(=O)C(C)C)CC1` (hydrate or solvate) [Example 416, 1-(4-{2-[4-Amino-2-ethoxymethyl-7-(pyridin-3-yl)-1H-imidazo[4,5-c]quinolin-1-yl]ethyl}piperazin-1-yl)-2-methylpropan-1-one], for which the melting point lay in the range of 190 to 192 °C.

`CCCc1nc2c(N)nc3cc(Cc4ccccc4)ccc3c2n1CC(C)(C)O` (hydrate or solvate) [Example 432, 1-(4-Amino-7-benzyl-2-propyl-1H-imidazo[4,5-c]quinolin-1-yl)-2-methylpropan-2-ol]: the melting point was in the range of 130 to 131 °C.

`CCCc1nc2c(N)nc3cc(/C=C/c4cccnc4)ccc3c2n1CC(C)C` (hydrate or solvate) [Example 446, (E)-1-(2-Methylpropyl)-2-propyl-7-[2-(pyridin-3-yl)vinyl]-1H-imidazo[4,5-c]quinolin-4-amine] returned a melting point of 190 to 192 °C.

In the case of `CCOCc1nc2c(N)nc3cc(-c4cccc(C(=O)N5CCOCC5)c4)ccc3c2n1CC1CCOCC1` (hydrate or solvate) [Example 477, {3-[4-Amino-2-ethoxymethyl-1-(tetrahydropyran-4-ylmethyl)-1H-imidazo[4,5-c]quinolin-7-yl]phenyl}morpholin-4-ylmethanone], the melting point fell in the range of 125 to 128 °C.

`CCOCc1nc2c(N)nc3cc(-c4cccnc4)ccc3c2n1CC1CCOCC1` (hydrate or solvate) [Example 479, 2-Ethoxymethyl-7-(pyridin-3-yl)-1-(tetrahydropyran-4-ylmethyl)-1H-imidazo[4,5-c]quinolin-4-amine] gave a melting point of 116 to 121 °C.

Consider `CCCCc1nc2c(N)nc3cc(-c4ccsc4)ccc3c2n1CC(C)C` [Example 1, 2-Butyl-1-isobutyl-7-(thiophen-3-yl)-1H-imidazo[4,5-c]quinolin-4-amine], for which the melting point lay in the range of 229 to 230 °C.

With `CCCCc1nc2c(N)nc3cc(-c4ccccc4)ccc3c2n1CC(C)C` [Example 2, 2-Butyl-1-isobutyl-7-phenyl-1H-imidazo[4,5-c]quinolin-4-amine], the melting point was above 250 °C.

The molecule `CCCCc1nc2c(N)nc3cc(-c4ccc(OC)cc4OC)ccc3c2n1CC(C)C` [Example 3, 2-Butyl-7-(2,4-dimethoxyphenyl)-1-isobutyl-1H-imidazo[4,5-c]quinolin-4-amine] showed a melting point of 187 to 189 °C.

Consider `CCCCc1nc2c(N)nc3cc(-c4ccc(C(C)(C)C)cc4)ccc3c2n1CC(C)C` [Example 4, 2-Butyl-7-(4-tert-butylphenyl)-1-isobutyl-1H-imidazo[4,5-c]quinolin-4-amine], for which the melting point lay within 219 to 220 °C.

In turn, `CCCCc1nc2c(N)nc3cc(-c4ccc(OCCC)cc4)ccc3c2n1CC(C)C` [Example 5, 2-Butyl-1-isobutyl-7-(4-propoxyphenyl)-1H-imidazo[4,5-c]quinolin-4-amine] came in with a melting point of 194 to 197 °C.

In the case of `CCCCc1nc2c(N)nc3cc(-c4ccccc4OCCC)ccc3c2n1CC(C)C` [Example 6, 2-Butyl-1-isobutyl-7-(2-propoxyphenyl)-1H-imidazo[4,5-c]quinolin-4-amine], the melting point was 174.5 to 176 °C.

`CCCCc1nc2c(N)nc3cc(/C=C/c4ccccc4)ccc3c2n1CC(C)C` [Example 7, 2-Butyl-1-isobutyl-7-[(E)-2-phenylethenyl]-1H-imidazo[4,5-c]quinolin-4-amine]: the melting point lay in the range of 215 to 216 °C.

`CCCCc1nc2c(N)nc3cc(CCc4ccccc4)ccc3c2n1CC(C)C` [Example 8, 2-Butyl-1-isobutyl-7-phenethyl-1H-imidazo[4,5-c]quinolin-4-amine] yielded a melting point of 181 to 182 °C.

For `CCOCc1nc2c(N)nc3cc(-c4ccsc4)ccc3c2n1CC(C)C` [Example 9, 2-Ethoxymethyl-1-isobutyl-7-(thiophen-3-yl)-1H-imidazo[4,5-c]quinolin-4-amine], the melting point lay in the range of 187 to 189 °C.

Regarding `CCCCc1nc2c(N)nc3cc(-c4ccccc4)ccc3c2n1CCCS(C)(=O)=O` [Example 10, 2-Butyl-1-(3-methanesulfonylpropyl)-7-phenyl-1H-imidazo[4,5-c]quinolin-4-amine], the melting point was 214 to 216 °C.

For the molecule `CC(C)Cn1cnc2c(N)nc3ccc(-c4ccc(C(C)(C)C)cc4)cc3c21` [Example 11, 8-(4-tert-Butylphenyl)-1-isobutyl-1H-imidazo[4,5-c]quinolin-4-amine], the melting point was above 250 °C.

Turning to `CC(C)Cn1cnc2c(N)nc3ccc(-c4ccsc4)cc3c21` [Example 12, 1-Isobutyl-8-(thiophen-3-yl)-1H-imidazo[4,5-c]quinolin-4-amine], the melting point was 235 to 236 °C.

As for `COc1ccc(-c2ccc3nc(N)c4ncn(CC(C)C)c4c3c2)c(OC)c1` [Example 13, 8-(2,4-Dimethoxyphenyl)-1-isobutyl-1H-imidazo[4,5-c]quinolin-4-amine], the melting point lay in the range of 223 to 227 °C.

`CCc1nc2c(N)nc3ccc(-c4ccccc4)cc3c2n1CC(C)C` [Example 16, 2-Ethyl-1-isobutyl-8-phenyl-1H-imidazo[4,5-c]quinolin-4-amine] showed a melting point of 233 to 235 °C.

Consider `CCc1nc2c(N)nc3ccc(-c4cccnc4)cc3c2n1CC(C)C` [Example 17, 2-Ethyl-1-isobutyl-8-(pyridin-3-yl)-1H-imidazo[4,5-c]quinolin-4-amine], for which the melting point is above 250 °C.

`CCCCn1c(COCC)nc2c(N)nc3ccc(-c4ccccc4)cc3c21` [Example 18, 1-Butyl-2-ethoxymethyl-8-phenyl-1H-imidazo[4,5-c]quinolin-4-amine] yielded a melting point of 186 to 187 °C.

With `CCCCn1c(COCC)nc2c(N)nc3ccc(-c4cccnc4)cc3c21` [Example 19, 1-Butyl-2-ethoxymethyl-8-(pyridin-3-yl)-1H-imidazo[4,5-c]quinolin-4-amine], the melting point was 220 to 222 °C.

`CCCOc1cccc(-c2ccc3c(c2)nc(N)c2nc(COCC)n(CC(C)C)c23)c1` [Example 106, 2-Ethoxymethyl-1-(2-methylpropyl)-7-(3-propoxyphenyl)-1H-imidazo[4,5-c]quinolin-4-amine] displayed a melting point of 140 to 141 °C.

In turn, `CCCOc1ccc(-c2ccc3c(c2)nc(N)c2nc(COCC)n(CC(C)C)c23)cc1` [Example 107, 2-Ethoxymethyl-1-(2-methylpropyl)-7-(4-propoxyphenyl)-1H-imidazo[4,5-c]quinolin-4-amine] displayed a melting point of 209 to 210 °C.

With `CCOCc1nc2c(N)nc3cc(-c4ccccc4)ccc3c2n1CC(C)C` [Example 108, 2-Ethoxymethyl-1-(2-methylpropyl)-7-phenyl-1H-imidazo[4,5-c]quinolin-4-amine], the melting point lay within 176.5 to 178 °C.

As to `CCCOc1ccccc1-c1ccc2c(c1)nc(N)c1nc(COCC)n(CC(C)C)c12` [Example 109, 2-Ethoxymethyl-1-(2-methylpropyl)-7-(2-propoxyphenyl)-1H-imidazo[4,5-c]quinolin-4-amine], the melting point lay within 168 to 169 °C.

The molecule `CCOCc1nc2c(N)nc3cc(-c4ccc(C#N)cc4)ccc3c2n1CC(C)C` [Example 110, 4-(4-Amino-2-ethoxymethyl-1-(2-methylpropyl)-1H-imidazo[4,5-c]quinolin-7-yl)benzonitrile] came in with a melting point of 211 to 212 °C.

The molecule `CCOCc1nc2c(N)nc3cc(-c4cccc(C#N)c4)ccc3c2n1CC(C)C` [Example 111, 3-(4-Amino-2-ethoxymethyl-1-(2-methylpropyl)-1H-imidazo[4,5-c]quinolin-7-yl)benzonitrile] displayed a melting point of 210 to 211 °C.

For `CCOCc1nc2c(N)nc3cc(-c4cccnc4)ccc3c2n1CC(C)C` [Example 113, 2-Ethoxymethyl-1-(2-methylpropyl)-7-(pyridin-3-yl)-1H-imidazo[4,5-c]quinolin-4-amine], the melting point lay in the range of 179.5 to 181.5 °C.

As to `CCOCc1nc2c(N)nc3cc(-c4ccc(N(C)C)cc4)ccc3c2n1CC(C)C` [Example 114, 7-(4-Dimethylaminophenyl)-2-ethoxymethyl-1-(2-methylpropyl)-1H-imidazo[4,5-c]quinolin-4-amine], the melting point was 214.5 to 215.5 °C.

As for `CCOCc1nc2c(N)nc3cc(-c4cncc(CO)c4)ccc3c2n1CC(C)C` [Example 115, {5-[4-Amino-2-ethoxymethyl-1-(2-methylpropyl)-1H-imidazo[4,5-c]quinolin-7-yl]pyridin-3-yl}methanol], the melting point fell in the range of 211 to 212 °C.

Turning to `CCOCc1nc2c(N)nc3cc(-c4ccncc4)ccc3c2n1CC(C)C` [Example 116, 2-Ethoxymethyl-1-(2-methylpropyl)-(7-pyridin-4-yl)-1H-imidazo[4,5-c]quinolin-4-amine], the melting point fell in the range of 211 to 213 °C.

`CCOCc1nc2c(N)nc3cc(CCc4ccc(C(F)(F)F)cc4)ccc3c2n1CC(C)C` [Example 117, 2-Ethoxymethyl-1-(2-methylpropyl)-7-{2-[(trifluoromethyl)phenyl]ethyl}-1H-imidazo[4,5-c]quinolin-4-amine] displayed a melting point of 175.5 to 178 °C.

In turn, `CCc1ccc(-c2ccc3nc(N)c4ncn(CC(C)C)c4c3c2)cc1` [Example 118, 8-(4-Ethylphenyl)-1-(2-methylpropyl)-1H-imidazo[4,5-c]quinolin-4-amine] had a melting point of 238 to 240 °C.

In turn, `Cc1ccc(-c2ccc3nc(N)c4ncn(CC(C)C)c4c3c2)cc1C` [Example 119, 8-(3,4-Dimethylphenyl)-1-(2-methylpropyl)-1H-imidazo[4,5-c]quinolin-4-amine] displayed a melting point of 204 to 205 °C.

`CC(=O)c1cccc(-c2ccc3nc(N)c4ncn(CC(C)C)c4c3c2)c1` [Example 120, 1-{3-[4-Amino-1-(2-methylpropyl)-1H-imidazo[4,5-c]quinolin-8-yl]phenyl}ethanone] had a melting point of 217 to 218 °C.

`CC(C)Cn1cnc2c(N)nc3ccc(-c4csc5ccccc45)cc3c21` [Example 121, 8-Benzo[b]thiophen-3-yl-1-(2-methylpropyl)-1H-imidazo[4,5-c]quinolin-4-amine] came in with a melting point of 247 to 248 °C.

In turn, `CC(C)Cn1cnc2c(N)nc3ccc(C=Cc4ccccc4)cc3c21` [Example 122, 1-(2-Methylpropyl)-8-styryl-1H-imidazo[4,5-c]quinolin-4-amine] yielded a melting point of 228 to 230 °C.
